Assay results taken from patent publication US11160798B2, “Neuroprotective CB2 receptor agonists” (THE CLEVELAND CLINIC FOUNDATION, priority 2012, dated 2021).

Columns and labels:
[1] = biological target: CB2 receptor (Homo sapiens, UniProt P34972); settings: cited from earlier work
[2] = test system: cognitive impairment induced by Aβ1-40; assay: Morris water maze test in rats microinjected with Aβ1-40 fibrils; type: in vivo, rat; settings: Aβ1-40-injected rats
Method: Animals and treatment protocol. All animal procedures were approved by the Animal Care and Use Committee of Cleveland Clinic. Animals were housed the Institutional Biological Rodent Unit on a 12/12 h light/dark cycle with water and food pellets available ad libitum. Adult male Sprague-Dawley (Charles River, Wilmington, Mass.) rats weighing 200-250 g were used, and all experiments were performed during the light cycle.
(§1) Animals were divided into several groups ([…]). The Aβ1-40 group received bilateral intracerebral microinjection of Aβ1-40 fibrils once and saline intraperitoneally (i.p.) daily for 14 days. The Aβ1-40+MDA7 group received bilateral intracerebral microinjection of Aβ1-40 fibrils once and 15 mg/kg MDA7 i.p. daily for 14 days. Other cohorts received smaller doses of MDA7 (5 mg/kg or 1.5 mg/kg) i.p. daily for 14 days to determine the dose-response characteristics for MDA7. In other groups, AM630 (a CB2 antagonist) 5 mg/kg i.p. was administered daily for 14 days either alone (Aβ1-40+AM630 group) or 15 min prior to MDA7 (15 mg/kg i.p.) administration (Aβ1-40+MDA7+AM630 group) to rats injected with β1-40 fibrils. MDA7 group and control group received bilateral intracerebral microinjection of artificial cerebrospinal fluid (130 mM NaCl, 2.6 mM KCl. 4.3 mM MgCl2 and 1.8 mM CaCl2) once and 15 mg/kg MDA7 or saline i.p. daily for 14 days, respectively. Intraperitoneal administration of AM630, MDA7 or saline started on the same day after intracerebral microinjection of Aβ1-40. All drugs were prepared coded. Decoding was performed at the end of all experiments.
Microinjection of amyloid fibrils into the hippocampal CA1 area. Rats were anesthetized with sodium pentobarbital (45 mg/kg i.p.) and restrained in a stereotaxic apparatus. Aβ1-40 fibrils were formed as described previously. Chacon, et al., Mol Psychiatry 9(10), 953-61 (2004), Aβ1-40 fibrils (10 μg/3 μl) or 3 μl of artificial cerebrospinal fluid were injected stereotaxically and bilaterally into each hippocampus (coordinates; Bregma −3.5 mm anteroposterior, ±2.0 mm mediolateral, and −3.0 mm dorsoventral) using a 10 μl Hamilton syringe with a 27 G stainless steel needle at a rate of 0.5 μl/min. This experimental model has been used for studying AD. Ahmed, et al., Neuroscience 169(3), 1296-306 (2010).
Morris water maze test. A cohort of rats (n=10 per group) was tested 15 days after surgery as described by Chacon et al. (ibid). Testing was conducted in all groups at the same time of the day. The experimental apparatus consisted of a circular pool (120 cm in diameter, 45 cm high). An invisible platform (15 cm in diameter, 35 cm high) was placed 1.5 cm below the surface of the water. The water temperature was kept at 24-28° C. The pool was located in a test room, and many clues external to the maze were visible from the pool, which could be used by the rats for spatial orientation. The position of the cues was kept constant throughout the task. Each rat underwent four trials per day for five days. During each trial (memory acquisition), the rats were placed randomly at one of four fixed starting points and were allowed to swim for 120 s or until they escaped from the water by reaching the platform. The platform was located in the same position throughout the test in the middle of one quadrant. The start location was moved to a different quadrant in each trial so that no single start location was used in consecutive trials. In each training session, the latency to escape to the hidden platform was recorded. After the rats reached the platform, they were allowed to rest there for 20 seconds, and they then were removed from the pool. An inter-trial interval of at least 4 minutes was used to ensure that each rat's performance was not impaired by fatigue. After completing four trials, the rats were removed from the pool, dried and returned to their home cage. […]

[3] = test system: Aβ1-40; assay: Clearance of Aβ1-40 injected in the hippocampal CA1 area (immunofluorescence); type: in vivo, rat
Method: as §1
Microinjection of amyloid fibrils into the hippocampal CA1 area. Rats were anesthetized with sodium pentobarbital (45 mg/kg i.p.) and restrained in a stereotaxic apparatus. Aβ1-40 fibrils were formed as described previously. […]
Immunostaining. […] Three to six sections from each rat were randomly selected and were analyzed using Leica DMLB fluorescence microscope (Leica Microsystems Wetzlar GmbH, Germany) by one investigator, who was blinded to the origin of tissue being examined. Images were quantified using MCID Core software version 7.0 (InterFocus Imaging Ltd, Cambridge, England).

Sequence of CB2 receptor (P34972 whole entry): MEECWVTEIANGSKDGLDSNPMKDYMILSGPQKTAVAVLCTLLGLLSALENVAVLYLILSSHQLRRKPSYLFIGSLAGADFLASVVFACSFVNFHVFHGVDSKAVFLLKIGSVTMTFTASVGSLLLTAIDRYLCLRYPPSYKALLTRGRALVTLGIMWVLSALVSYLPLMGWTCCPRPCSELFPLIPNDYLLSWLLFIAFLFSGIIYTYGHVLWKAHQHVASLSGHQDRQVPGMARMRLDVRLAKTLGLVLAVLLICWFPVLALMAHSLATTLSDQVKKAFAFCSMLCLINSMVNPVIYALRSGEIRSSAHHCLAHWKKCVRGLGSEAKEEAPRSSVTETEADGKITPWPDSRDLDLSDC

Structure (SMILES)	activity compared with the other enantiomer [1]	effect on escape latency of AM630 given prior to MDA7 ([2]; AM630 5 mg/kg i.p. 15 min prior to MDA7 15 mg/kg i.p., daily for 14 days)	spatial memory or probe test, AM630 alone ([2]; AM630 5 mg/kg i.p. daily for 14 days alone, vs Aβ1-40 group)	effect of prior AM630 on MDA7-induced removal of Aβ1-40 ([3]; AM630 5 mg/kg i.p. for 14 days prior to MDA7 15 mg/kg)	clearance of injected Aβ1-40, AM630 alone ([3]; Aβ1-40-injected rats, AM630 5 mg/kg i.p. alone)
CC1(Cc2ccccc2)COc2cc(C(=O)N3CCCCC3)ccc21 (stereo in doubt) [S enantiomer, (S)-(3-benzyl-3-methyl-2,3-dihydro-benzofuran-6-yl)-piperidin-1-yl-methanone]	higher activity				
COc1ccc(C(=O)c2c(C)n(CCN3CCOCC3)c3cc(I)ccc23)cc1 [AM630, reference compound]		reversed the effect of MDA7	did not show any improvement	abrogated	no effect
